Data from patent US20250101356A1, “CONTAINER FOR PRODUCING TENSION-APPLIED THREE-DIMENSIONAL ARTIFICIAL SKIN AND PRODUCTION METHOD THEREOF” (RIKEN, priority 2022, published 2025).

Key:
Assay type in all cases: cell-based, human
[1] = test system: hyaluronan synthase (HAS3) gene expression; assay: HAS3 gene expression in tension-applied three-dimensional artificial skin (real-time PCR); conditions: artificial skin of the present invention; 10 μM ATRA solution on gauze on epidermis for 1 hour, then 5 hours culture (6 hours after addition)
Description: The artificial skin was such that, on the 6th day of culture, this was replaced with a medium for assay use (Dulbecco's Modified Eagle's Medium containing 1 μM hydrocortisone, 5 μg/mL insulin, and 10% fetal bovine serum). On the 8th day of culture, gauze that had been impregnated with 0.2% HPC solution or 10 μM ATRA solution was placed on the surface of the epidermis, and this was cultured for 1 hour in a 5% CO2 incubator at 37° C. After 1 hour, the gauze was removed, and this was further cultured for 5 hours in a 5% CO2 incubator at 37° C. Following culture of the artificial skin for 6 hours, the artificial skin was removed from the container in such fashion as to not cause the epidermal tissue to be delaminated therefrom, and a razor was used to cut this in half. After using […] from an RNeasy Plus Mini Kit (manufactured by Qiagen) to dissolve tissue by pulverizing with beads, phenol chloroform was used to remove protein therefrom, following which column purification was carried out as directed by the RNeasy Plus Mini Kit protocol to obtain total RNA.
SuperScript VILO Master Mix (manufactured by Invitrogen) was used as directed by the attached manual to carry out synthesis of cDNA from the purified total RNA. […]

[2] = test system: collagen 1A1 (COL1A1) gene expression; assay: Collagen 1A1 gene expression in tension-applied three-dimensional artificial skin (real-time PCR); conditions: artificial skins prepared using means of the present invention; 10 ng/mL TGF-β in assay medium, 48 hours
Description: (§1) The artificial skin was such that, on the 6th day of culture, this was replaced with a medium for assay use (Dulbecco's Modified Eagle's Medium containing 1 μM hydrocortisone, 5 μg/mL insulin, and 10% fetal bovine serum). […] After using RNT solution from an RNeasy Plus Mini Kit (manufactured by Qiagen) to dissolve tissue by pulverizing with beads, phenol chloroform was used to remove protein therefrom, following which column purification was carried out as directed by the RNeasy Plus Mini Kit protocol to obtain total RNA.
(§2) SuperScript VILO Master Mix (manufactured by Invitrogen) was used as directed by the attached manual to carry out synthesis of cDNA from the purified total RNA. The synthesized cDNA was mixed with SYBR Premix Ex Taq (manufactured by Takara) and primer mix (a mixture of forward and reverse primers), 12.5 μL of reaction solution was prepared in each well of a 96-well plate for PCR use, and a QuantStudio 12K Flex (Applied Biosystems) was used to carry out real-time PCR. The real-time PCR reaction was such that 40 cycles comprising 95° C. for 30 seconds for initial denaturation, and 95° C. for 5 seconds and 60° C. for 31 seconds for the PCR reaction, were carried out. […]

[3] = test system: elastin (ELN) gene expression; assay: Elastin gene expression in tension-applied three-dimensional artificial skin (real-time PCR); conditions: artificial skins prepared using means of the present invention; 10 ng/mL TGF-β in assay medium, 48 hours
Description: as §1, §2

Row | Compound | increase of HAS3 gene expression as compared with the situation when unstimulated [1] [×] | increase of COL1A1 gene expression as compared with the situation when unstimulated [2] [×] | increase of elastin (ELN) gene expression as compared with the situation when unstimulated [3] [×]
1 | CC1=C(/C=C/C(C)=C/C=C/C(C)=C/C(=O)O)C(C)(C)CCC1 [ATRA] | ≥ 3 | – | –
2 | TGF-β | – | ≥ 1.5 | ≥ 3
